{"source": "patent US5164400A", "about": "“Pyrroloquinoline compounds” (Fujisawa Pharmaceutical Co., Ltd., priority 1989, dated 1992)", "key": {"[1]": {"molecular_target": "T1, rat liver 3-Hydroxy-3-methylglutary-Coenzyme A Reductase (Rattus norvegicus, UniProt P51639)", "T1 construct": "from tissue; host or cells: rat liver microsomes (solubilized, purified through second ammonium sulfate precipitation)", "T1 sequence (P51639 1-887)": "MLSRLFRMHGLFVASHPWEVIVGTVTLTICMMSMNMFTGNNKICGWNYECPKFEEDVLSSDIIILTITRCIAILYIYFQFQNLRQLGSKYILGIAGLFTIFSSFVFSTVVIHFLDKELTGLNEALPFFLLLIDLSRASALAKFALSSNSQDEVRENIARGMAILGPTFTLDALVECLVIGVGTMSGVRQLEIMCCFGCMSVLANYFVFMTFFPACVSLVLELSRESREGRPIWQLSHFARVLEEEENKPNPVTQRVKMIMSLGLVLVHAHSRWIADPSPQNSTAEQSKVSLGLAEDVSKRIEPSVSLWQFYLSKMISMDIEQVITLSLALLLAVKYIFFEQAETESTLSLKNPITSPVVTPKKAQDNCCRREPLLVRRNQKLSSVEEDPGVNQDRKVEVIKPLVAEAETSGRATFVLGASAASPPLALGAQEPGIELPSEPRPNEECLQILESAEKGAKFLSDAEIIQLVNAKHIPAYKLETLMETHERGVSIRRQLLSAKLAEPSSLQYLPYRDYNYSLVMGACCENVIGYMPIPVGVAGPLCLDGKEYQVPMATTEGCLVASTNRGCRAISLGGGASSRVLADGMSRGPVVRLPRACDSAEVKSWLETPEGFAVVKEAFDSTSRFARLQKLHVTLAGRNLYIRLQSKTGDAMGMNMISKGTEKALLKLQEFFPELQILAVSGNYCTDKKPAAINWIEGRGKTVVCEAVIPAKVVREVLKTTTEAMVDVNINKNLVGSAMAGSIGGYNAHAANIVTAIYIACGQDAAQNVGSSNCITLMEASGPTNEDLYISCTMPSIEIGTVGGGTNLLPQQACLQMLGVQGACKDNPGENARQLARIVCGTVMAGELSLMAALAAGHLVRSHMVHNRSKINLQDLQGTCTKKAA", "test": "Assay for rat liver 3-Hydroxy-3-methylglutary-Coenzyme A Reductase Activity (in vitro)", "format": "biochemical", "conditions": "enzyme solubilized from rat liver microsomes, pH 7.4, 37° C., 20 minutes", "experimental": "(1) Test 1 [Assay for rat liver 3-Hydroxy-3-methylglutary-Coenzyme A Reductase Activity (in vitro)]\nFive μl or an enzyme solution, solubilized from rat liver microsomes and purified through the second ammonium sulfate precipitation step, is added to 35 μl of a reaction mixture containing 1.11 kBg(=0.03 μCi) or 3-hydroxy-3-metyhl [3-^14 C] glutary coenzyme A, 100 mM potassium phosphate buffer, pH 7.4, 10 mM ethylenediaminetetraacetic acid (EDTA), 10 mM dithiothreitol with or without the graded concentrations of the test compound. The reaction is started by addition of 10 μl of 25 mM β-nicotinamide adenine dinucleotide phosphate, reduced form (NADPH). The mixture is incubated at 37° C. for 20 minutes. The reaction is terminated by addition of 10 μl of 2N hydrochloric acid. After an additional incubation for 15 minutes at 37° C., a 20 μl aliquot of the mixture is applied to a Silica Gel 60 F-254 plate (made by Merck & Co., Inc.). The chromatograms are developed in benzene/acetone (1:1). Sections of the thin layer plates where the mevalonolactone is located are scraped and the radioactivity are counted."}, "Sterol Synthesis": {"test_system": "Sterol Synthesis", "test": "Assay for Sterol Synthesis in Rats (in vivo)", "parameters": "species or system Male SD rats", "conditions": "dose 10.0 mg/kg, oral intubation, [1-^14 C] acetate i.p. 1 hour after compound, blood after 50 minutes", "experimental": "(2) Test 2 [Assay for Sterol Synthesis in Rats (in vivo)]\nMale SD rats are administered the test compound by oral intubation. One hour after compound administration, the rats are injected intraperitoneally with sodium [1-^14 C] acetate at 3.7 MBq/kg (=100 μCi/kg). After 50 minutes, 2.5 ml of blood samples are taken by cardiac puncture under short-term ether anesthesia. The plasma, obtained by centrifugation, is hydrolyzed and nonsaponifiable lipids are extracted with the petroleum ether. Sterols are isolated from these extracts as digitonide, dissolved in 1ml of methanol and the radioactivity is counted."}}}
{"compound": "COc1cc(F)ccc1-c1c(/C=C/C(O)CC(O)CC(=O)O)n2c3c(cccc13)CCC2(C)C", "note": "(single isomer, unassigned) [Compound B, sodium (+)-erythro-(E)-7-[5,6-dihydro-4,4-dimethyl-1-(4-fluoro-2-methoxyphenyl)-4H-pyrrolo[3,2,1-ij]quinolin-2-yl]-3,5-dihydroxyhept-6-enoate]", "values": [{"measurement": "IC50", "setting": "[1]", "value": 0.0257, "unit": "µM"}]}
{"compound": "COc1cc(F)ccc1-c1c(/C=C/[C@@H](O)C[C@@H](O)CC(=O)O)n2c3c(cccc13)CCC2(C)C", "note": "(relative stereo) [Compound A]", "values": [{"measurement": "IC50", "setting": "[1]", "value": 0.0535, "unit": "µM"}, {"measurement": "Inhibition (%)", "setting": "Sterol Synthesis", "value": 95.7, "unit": "%"}]}
